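Assay format: 96-well plates, 48-hour exposure. TGI denotes the concentration required for complete inhibition of growth.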
Assays:
Assay in all cases: inhibition of tumour cell growth, NCI panel, 48 h
[1] = system: 786-0 renal
[2] = system: A498 renal
[3] = system: A549 NSCLC
[4] = system: ACHN renal
[5] = system: COLO 205 colon
[6] = system: DLD-1 colon
[7] = system: DMS 114 small cell lung
[8] = system: DMS 273 small cell lung
[9] = system: EKVX NSCLC
[10] = system: HCC-2998 colon
[11] = system: HCT-116 colon
[12] = system: HCT-15 colon
[13] = system: HOP-18 NSCLC
[14] = system: HOP-62 NSCLC
[15] = system: HOP-92 NSCLC
[16] = system: HT29 colon
[17] = system: IGROV1 ovarian
[18] = system: K-562 leukemia
[19] = system: KM12 colon
[20] = system: KM20L2 colon
[21] = system: LOX IMVI melanoma
[22] = system: LXFL 529 NSCLC
[23] = system: M14 melanoma
[24] = system: M19-MEL melanoma
[25] = system: MALME-3M melanoma
[26] = system: NCI-H226 lung
[27] = system: NCI-H23 lung
[28] = system: NCI-H460 lung
[29] = system: NCI-H522 lung
[30] = system: OVCAR-3 ovarian
[31] = system: OVCAR-4 ovarian
[32] = system: OVCAR-5 ovarian
[33] = system: OVCAR-8 ovarian
[34] = system: RXF 393 renal
[35] = system: SF-268 CNS
[36] = system: SF-295 CNS
[37] = system: SF-539 CNS
[38] = system: SK-MEL-2 melanoma
[39] = system: SK-MEL-28 melanoma
[40] = system: SK-MEL-5 melanoma
[41] = system: SK-OV-3 ovarian
[42] = system: SN12C renal
[43] = system: SNB-19 CNS
[44] = system: SNB-75 CNS
[45] = system: SNB-78 CNS
[46] = system: SW-620 colon
[47] = system: TK-10 renal
[48] = system: U251 CNS
[49] = system: UACC-257 melanoma
[50] = system: UACC-62 melanoma
[51] = system: UO-31 renal
[52] = system: XF 498 CNS
[53] = system: CAKI-1 renal
[54] = system: CCRF-CEM leukemia
[55] = system: HL-60(TB) leukemia
[56] = system: MOLT-4 leukemia
[57] = system: SR leukemia
[58] = system: RPMI-8226 leukemia

Measured: TGI

COC(=O)CCC(NC(=S)N/N=C(\C)c1cccs1)C(=O)OC (centres undefined)
not listed: [53] | [54] | [55] | [56] | [57] | [58]
> 100 µM: all other assays above

O=C(C#Cc1ccccc1)NC/C=C/c1ccccc1
57.2 µM: [15]
99.2 µM: [10]
58.1 µM: [55]
93.8 µM: [26]
84.1 µM: [45]
79.9 µM: [43]
37 µM: [34]
56.2 µM: [1]
52.5 µM: [14]
45.8 µM: [44]
96.6 µM: [29]
56.6 µM: [41]
97.4 µM: [38]
not listed: [8] | [52] | [58]
> 100 µM: all other assays above

Cc1cc(O)c2c(c1)OC1(C)CCC3C(C)(C)CCCC34COC2C14 (centres undefined)
28.6 µM: [3]
26.8 µM: [30]
26.3 µM: [25]
28.1 µM: [10]
35.9 µM: [27]
32.7 µM: [43]
32.9 µM: [53]
28.2 µM: [22]
29.9 µM: [5]
30.6 µM: [28]
29.1 µM: [23]
27.3 µM: [11] | [21]
42.7 µM: [54]
28.5 µM: [14]
30.9 µM: [33]
25.8 µM: [4]
38.7 µM: [17]
30.7 µM: [1] | [35]
27.4 µM: [56]
63.7 µM: [55]
33.5 µM: [31]
34.6 µM: [29]
46.3 µM: [18]
26 µM: [2]
36.8 µM: [6]
31 µM: [26]
30.8 µM: [42]
27.5 µM: [40]
27.1 µM: [7] | [8]
30 µM: [46]
24.8 µM: [9]
34.8 µM: [50]
29.5 µM: [32]
28.3 µM: [36]
33.3 µM: [20]
33.2 µM: [51]
23.8 µM: [37]
28.8 µM: [49]
35.3 µM: [19]

c1ccc(C2N=C(c3ccccn3)C(c3ccccn3)=NC2c2ccccc2)cc1 (centres undefined)
not listed: [42] | [44] | [57]
> 100 µM: all other assays above

From PubChem BioAssay (NCI)
